From patent US20110039721A1, “METHOD FOR PREDICTION ABOUT CARCINOGENICITY OF SUBSTANCE IN RODENT” (Chemicals Evaluation and Research Institute, priority 2007, published 2011)

Columns and labels:
liver = conditions: in vivo; cited from earlier work
rodent = conditions: in vivo; cited from earlier work
[1] = test system: mRNA expressed from the genes (A) to (D) in rat liver; test: Behavior of genes (mRNA expression level, oligo-DNA microarray) in rat liver after 28-day oral administration; format: in vivo; conditions: rat, in vivo
Method in brief: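 Groups of four male F344 SPF rats aged 5 weeks are gavaged once a day for 28 days with test chemical in solvent or with solvent alone at equal volume. Total RNA comes from liver taken on day 28. Fold change of 1.5 or 1/1.5 versus control, directionally consistent, defines significance.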

SMILES: Oc1cccc2cccnc12 [TS007, 8-Hydroxyquinoline]
- Liver carcinogenicity (liver): Cr−
- Carcinogenicity (rodent): C−
- Behavior of gene caused by administration of chemical substance, Gene No. 154 [1]: −
- Behavior of gene caused by administration of chemical substance, Gene No. 533 [1]: −
- Behavior of gene caused by administration of chemical substance, Gene No. 725 [1]: −
- Behavior of gene caused by administration of chemical substance, Gene No. 813 [1]: −
- Behavior of gene caused by administration of chemical substance, Gene No. 893 [1]: −
- Behavior of gene caused by administration of chemical substance, Gene No. 1119 [1]: −
- Behavior of gene caused by administration of chemical substance, Gene No. 1131 [1]: −
- Behavior of gene caused by administration of chemical substance, Gene No. 1163 [1]: −
- Behavior of gene caused by administration of chemical substance, Gene No. 1334 [1]: −
- Behavior of gene caused by administration of chemical substance, Gene No. 1494 [1]: −
- Behavior of gene caused by administration of chemical substance, Gene No. 1562 [1]: −
- Behavior of gene caused by administration of chemical substance, Gene No. 1741 [1]: −
- Behavior of gene caused by administration of chemical substance, Gene No. 1993 [1]: −
- Behavior of gene caused by administration of chemical substance, Gene No. 2026 [1]: −
- Behavior of gene caused by administration of chemical substance, Gene No. 2045 [1]: −
- Behavior of gene caused by administration of chemical substance, Gene No. 2203 [1]: −
- Behavior of gene caused by administration of chemical substance, Gene No. 2494 [1]: −
- Behavior of gene caused by administration of chemical substance, Gene No. 2546 [1]: −
- Behavior of gene caused by administration of chemical substance, Gene No. 3776 [1]: −
- Behavior of gene caused by administration of chemical substance, Gene No. 3929 [1]: −
- Behavior of gene caused by administration of chemical substance, Gene No. 4095 [1]: −
- Behavior of gene caused by administration of chemical substance, Gene No. 4218 [1]: −
- Behavior of gene caused by administration of chemical substance, Gene No. 4846 [1]: −
- Behavior of gene caused by administration of chemical substance, Gene No. 4973 [1]: −
- Behavior of gene caused by administration of chemical substance, Gene No. 5600 [1]: −
- Behavior of gene caused by administration of chemical substance, Gene No. 5634 [1]: −
- Behavior of gene caused by administration of chemical substance, Gene No. 5726 [1]: +
- Behavior of gene caused by administration of chemical substance, Gene No. 5878 [1]: −
- Behavior of gene caused by administration of chemical substance, Gene No. 6026 [1]: −
- Behavior of gene caused by administration of chemical substance, Gene No. 6182 [1]: −
- Behavior of gene caused by administration of chemical substance, Gene No. 6303 [1]: −
- Behavior of gene caused by administration of chemical substance, Gene No. 6620 [1]: −
- Behavior of gene caused by administration of chemical substance, Gene No. 6742 [1]: −
